The results in this text go back to patent US11590117B2, “Treatment of a hematologic malignancy with 2-(4-chlorophenyl)-n-((2-(2,6-dioxopiperidin-3-yl)-1-oxoisoindolin-5-yl)methyl)-2,2-difluoroacetamide” (priority 2016, dated 2023).

Where two headings read alike, the source gives them in different places.

In assay [1] the test system is Red-labeled AML cell lines. Description: IncuCyte live cell imaging of cell viability, sub-panel of twelve Red-labeled AML cell lines. Type of assay: cell-based. The following applies: Homo sapiens, 96 h. The procedure:
(§1) Derivation of Red-labeled Acute Myeloid Leukemia Cell Lines: Twelve cell lines, including AML-193, HL-60, KG-1, ML-2, MOLM-13, MV-4-11, NOMO-1, OCI-AML2, OCI-AML3, SIG-M5, TF-1, and THP-1, were stably transduced with Red lentivirus. Cells were plated in 6-well plates in growth media, incubated with 8 µg/mL polybrene (EMD Millipore Cat no. TR-1003-G) followed by infection with CellPlayer™ NucLight™ Red-lentiviral particles (Essen Biosciences Cat no. 4478) at a multiplicity of infectivity (MOI) of 0.5 to 2.5 for 24 hours. MOI refers to the ratio of virus particles to cells. Virus-containing media was replaced with fresh growth media and incubated for an additional 24 to 48 hours, followed by selection with Zeocin (500 to 2000 μg/mL), a derivative of bleomycin (Life Technologies-Invitrogen Cat no. R250-01). Cells were selected with fresh Zeocin every 3 to 4 days for 3 to 8 weeks. Cells were periodically viewed using fluorescent microscopy for nuclear-restricted red fluorescence. Zeocin selection was terminated once the population was confirmed to stably fluoresce red. All Red-labeled cell lines were acclimated to EMEM containing 20% FBS, with or without GM-CSF supplementation, allowing for optimal live cell imaging.
(§2) Incubation of Cell Cultures with Compound 1: Compound 1 was provided for studies by Celgene chemistry group at a stock concentration of 30 mM in 20 μL dimethyl sulfoxide (DMSO) frozen. Costar 96-well cell culture plates (Corning Cat no. 3595) were coated with 100 μL of 10 µg/mL fibronectin (Sigma-Aldrich Cat no. F1141) for 4 hours at 37° C. and immediately used or refrigerated overnight for later use. Cells (3000 to 6000 cells) were plated in growth medi in fibronectin-coated 96-well plates and incubated for a minimum of a few hours to overnight. Cells were incubated with a 12-point concentration response in triplicate with Compound 1 ([…]) including DMSO and Media controls. A 3-fold serial dilution of Compound 1 starting from a concentration of 200 μM in 0.6% DMSO (diluted in Media) was performed. For most sensitive cell lines, a 3-fold serial dilution of Compound 1 starting from a concentration of 20 μM in 0.6% DMSO (diluted in media) was performed. A volume of 5 μL or 10 μL for each dilution was added to 100 μL or 200 μL cells, respectively (0.3% DMSO final) and incubated for live cell imaging.
Live Cell Imaging on IncuCyte Zoom: Following incubation of cells with Compound 1, diluted Caspase 3/7 reagent (Essen Biosciences Cat no. 4440) is added to each well. […] Caspase-3/7 activation was quantified using the IncuCyte™ ZOOM basic analyzer. […]
(§3) Twelve Red-labeled human AML cell lines, established as described above, were incubated with Compound 1 dose range (0 to 10 μM) and Red fluorescence or Object count was imaged over time, as described above. […]

In another assay the test system is AML-193. Description: IncuCyte live cell imaging of cell viability, Red-labeled cell line. The assay is classed as cell-based. The following applies: Homo sapiens, Red-labeled AML-193, read-out: Inhibition of Cell Viability EC50. The procedure: as §1, §2
(§4) Live Cell Imaging on IncuCyte Zoom: Following incubation of cells with Compound 1, diluted Caspase 3/7 reagent (Essen Biosciences Cat no. 4440) is added to each well. The Caspase-3/7 reagent couples the activated caspase-3/7 recognition motif (DEVD) to NucView™488, a DNA intercalating dye. The cleavage of substrate by activated caspase-3/7 results in the release of the DNA dye and green fluorescent staining of nuclear DNA. This allows imaging of cells undergoing caspase-3/7 mediated apoptosis over time. Caspase-3/7 activation was quantified using the IncuCyte™ ZOOM basic analyzer. Red-labeled cell lines were also imaged over time using the IncuCyte™ ZOOM basic analyzer, for determination of both cell doubling time and Compound 1 effect on cell viability. Experiments were performed at least two times in each cell line.
(§5) Next, a 4 parameter log-logistic model was used to determine relative EC50 at each time point by the ‘drm’ function from the R ‘drc’ package (Ritz C, Streibig J C. Bioassay Analysis using R. J. Statist. Software 2005; 12(5):1-22). Goodness of fit was measured by R squared (coefficient of determination or the amount of variation explained by the model fit) of ≥80%, and EC50 parameter was assessed by having a ratio of standard error to the parameter of ≤40%, and the presence of at least one concentration point above and below the reported EC50.
as §3

Another assay has as its system HL-60. The description is as above. The assay is classed as cell-based. The settings on record: Homo sapiens, Red-labeled HL-60, read-out: Inhibition of Cell Viability EC50. The procedure:
as §1, §2, §4, §5, §3

Another assay concerns MV4-11. Described as above. The assay is classed as cell-based. The settings on record: Homo sapiens, Red-labeled MV4-11, read-out: Inhibition of Cell Viability EC50. The procedure: as §1, §2, §4, §5, §3
The test system of another assay is OCI-AML2. The description is as above. Type of assay: cell-based. The following applies: Homo sapiens, read-out: Inhibition of Cell Viability EC50. The procedure:
as §1, §2, §4, §5, §3

A further assay deals with SIG-M5. The assay is described as above. Type of assay: cell-based. The settings on record: Homo sapiens, read-out: Inhibition of Cell Viability EC50. The procedure:
as §1, §2, §4, §5, §3

In assay [2] the test system is Bone marrow mononuclear cells (BMMCs) from high risk MDS patients. Description: MDS intracellular flow cytometry, active Caspase 3. Type of assay: cell-based, human. The following applies: 24 hours exposure. The procedure: Methods. The effect of Compound 1 on high risk MDS samples was measured in an in vitro liquid culture as well as by colony assays in order to better define its effect on stem/progenitor cells. Bone marrow mononuclear cells (BMMCs) from high risk MDS patients were cultured in vitro in CellGro medium (GellGenix) supplemented with hLDL (40 μg/mL), SCF (50 ng/mL), FLT3 […] (50 ng/mL), IL-3 (10 ng/mL), IL-6 (25 ng/mL) and TPO (100 ng/mL), all from Peprotech. During culture, cells were exposed to different concentrations of Compound 1 (37, 111, 333 and 1000 nM) or DMSO control. After 24 hours, cells were washed twice to remove compound and maintained in culture up to one week, performing viable cell counting on days 1, 3 and 7. Just after compound washout, […] per condition were collected for colony forming assays and another […] were stained for intracellular flow cytometry.
For intracellular flow cytometry measurement of apoptosis cells were fixed in 1.6% paraformaldehyde, permeabilized in ice cold methanol and stained using a FITC-conjugated anti-active Caspase 3 antibody (Becton Dickinson). A FACSCanto II flow cytometer (Becton Dickinson) was used for flow cytometry data acquisition. Flow cytometry standard (FCS) files were analyzed using Infinicyt software (Cytognos).
A general note: Flow cytometry measures light scatter and fluorescence of single cells or particles in a stream.

As a reminder, the EC50 is the concentration giving half of the maximal effect.

In the case of `O=C1CCC(N2Cc3cc(CNC(=O)C(F)(F)c4ccc(Cl)cc4)ccc3C2=O)C(=O)N1` (stereo not drawn) [Compound 1, 2-(4-chlorophenyl)-N-((2-(2,6-dioxopiperidin-3-yl)-1-oxoisoindolin-5-yl)methyl)-2,2-difluoroacetamide], the EC50 in assay [1] (four moderately sensitive cell lines (TF-1, THP-1, SIG-M5, OCI-AML3), read-out: cell viability EC50 96hr (range)) is 0.058 to 0.186 µM; in assay [1] (four moderately sensitive cell lines, read-out: cell viability average EC50 96hr), 0.121 µM; in assay [1] (seven highly sensitive cell lines (AML-193, ML-2, HL-60, KG-1, NOMO-1, MV-4-11, OCI-AML2), read-out: cell viability EC50 96hr (range)) it was 0.002 to 0.04 µM; in assay [1] (seven highly sensitive cell lines, read-out: cell viability average EC50 96hr), 0.015 µM; in the assay with AML-193 (24 hr) it was 0.01 µM; in the assay on AML-193 (48 hr) it was 0.004 µM. Further, the EC50 was found to be 0.003 µM in the assay with AML-193 (72 hr); 0.002 µM in the assay with AML-193 (96 hr); 0.009 µM in the assay with HL-60 (48 hr); 0.007 µM with HL-60 (72 hr); 0.006 µM with HL-60 (96 hr); 0.04 µM in the assay with MV4-11 (48 hr). Moreover, the EC50 is 0.027 µM in the assay with MV4-11 (72 hr); 0.026 µM in the assay with MV4-11 (96 hr); 0.387 µM with OCI-AML2 (24 hr); 0.083 µM in the assay with OCI-AML2 (48 hr); 0.042 µM in the assay with OCI-AML2 (72 hr); 0.04 µM with OCI-AML2 (96 hr). Moreover, the EC50 with SIG-M5 (72 hr) is 0.156 µM; in the assay with SIG-M5 (96 hr), 0.178 µM. Moreover, the “caspase 3 activation” value in assay [2] is on record as “induction of apoptosis”.
